Experimental data from ChEMBL document CHEMBL1201862, “PubChem BioAssay data set” (2004).
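96-well plates; 48 h exposure; 5 concentrations. Endpoints by linear interpolation between flanking doses. Not reached: highest tested concentration assigned. GI50 = concentration required for 50% inhibition of growth.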 The source made the active and inactive calls. No stated cut-off is given here; in the data, active = GI50 up to about 1.1 µM and inactive = higher.

Legend:
Test in all cases: growth of human tumour cells (NCI), 48 h
Malme-3M = system: Malme-3M
NCI-H23 = system: NCI-H23
OVCAR-8 = system: OVCAR-8
UACC-257 = system: UACC-257
CCRF-CEM = system: CCRF-CEM
M14 = system: M14
BT-549 = system: BT-549
PC-3 = system: PC-3
UACC-62 = system: UACC-62
SW-620 = system: SW-620
SF-539 = system: SF-539
RPMI-8226 = system: RPMI-8226
HCT-15 = system: HCT-15
A498 = system: A498
OVCAR-4 = system: OVCAR-4
SF-295 = system: SF-295
HCT-116 = system: HCT-116
RXF 393 = system: RXF 393
HL-60 = system: HL-60
COLO 205 = system: COLO 205
HOP-92 = system: HOP-92
MDA-N = system: MDA-N
LOX IMVI = system: LOX IMVI
SK-MEL-5 = system: SK-MEL-5
DU-145 = system: DU-145
SF-268 = system: SF-268
SR = system: SR
HOP-62 = system: HOP-62
MDA-MB-435 = system: MDA-MB-435
ACHN = system: ACHN
SN12C = system: SN12C
A549 = system: A549
EKVX = system: EKVX
UO-31 = system: UO-31
K562 = system: K562
T47D = system: T47D
NCI/ADR-RES = system: NCI/ADR-RES
HT-29 = system: HT-29
SK-MEL-28 = system: SK-MEL-28
HCC 2998 = system: HCC 2998
SK-OV-3 = system: SK-OV-3
MOLT-4 = system: MOLT-4
SNB-75 = system: SNB-75
SK-MEL-2 = system: SK-MEL-2
IGROV-1 = system: IGROV-1
U-251 = system: U-251
NCI-H226 = system: NCI-H226
SNB-19 = system: SNB-19
Hs-578T = system: Hs-578T
NCI-H460 = system: NCI-H460
OVCAR-5 = system: OVCAR-5
TK-10 = system: TK-10
MDA-MB-231 = system: MDA-MB-231
786-0 = system: 786-0
CAKI-1 = system: CAKI-1
KM12 = system: KM12
OVCAR-3 = system: OVCAR-3
MCF7 = system: MCF7
NCI-H522 = system: NCI-H522

With `CCOP(=O)(OCC)C(F)(F)CC1CCCCC1` the GI50 (Malme-3M) was > 10 µM (inactive), the GI50 (NCI-H23) was > 10 µM (inactive) and the GI50 (OVCAR-8) was > 10 µM (inactive). For the same compound, the GI50 (UACC-257) was > 10 µM (inactive), the GI50 (CCRF-CEM) was > 10 µM (inactive) and the GI50 (M14) was > 10 µM (inactive). For the same compound, the GI50 (BT-549) was > 10 µM (inactive), the GI50 (PC-3) was > 10 µM (inactive) and the GI50 (UACC-62) was > 10 µM (inactive). The GI50 (SW-620) was > 10 µM (inactive), the GI50 (SF-539) was > 10 µM (inactive) and the GI50 (RPMI-8226) was > 10 µM (inactive). For the same compound, the GI50 (HCT-15) was > 10 µM, the GI50 (A498) was > 10 µM (inactive) and the GI50 (OVCAR-4) was > 10 µM (inactive). The GI50 (SF-295) was > 10 µM (inactive), the GI50 (HCT-116) was > 10 µM (inactive) and the GI50 (RXF 393) was > 10 µM (inactive). For the same compound, the GI50 (HL-60) was > 10 µM (inactive), the GI50 (COLO 205) was > 10 µM (inactive) and the GI50 (HOP-92) was > 10 µM (inactive). For the same compound, the GI50 (MDA-N) was > 10 µM (inactive), the GI50 (LOX IMVI) was > 10 µM (inactive) and the GI50 (SK-MEL-5) was > 10 µM (inactive). For the same compound, the GI50 (DU-145) was > 10 µM (inactive), the GI50 (SF-268) was > 10 µM (inactive) and the GI50 (SR) was > 10 µM (inactive). The GI50 (HOP-62) was > 10 µM (inactive), the GI50 (MDA-MB-435) was > 10 µM (inactive) and the GI50 (ACHN) was > 10 µM (inactive). The GI50 (SN12C) was > 10 µM (inactive), the GI50 (A549) was > 10 µM (inactive) and the GI50 (EKVX) was > 10 µM (inactive). For the same compound, the GI50 (UO-31) was > 10 µM (inactive), the GI50 (K562) was > 10 µM (inactive) and the GI50 (T47D) was > 10 µM (inactive). The GI50 (NCI/ADR-RES) was > 10 µM (inactive), the GI50 (HT-29) was > 10 µM (inactive) and the GI50 (SK-MEL-28) was > 10 µM (inactive). The GI50 (HCC 2998) was > 10 µM (inactive), the GI50 (SK-OV-3) was > 10 µM (inactive) and the GI50 (MOLT-4) was > 10 µM (inactive). For the same compound, the GI50 (SNB-75) was 4.38 µM (inactive), the GI50 (SK-MEL-2) was > 10 µM (inactive) and the GI50 (IGROV-1) was > 10 µM (inactive). For the same compound, the GI50 (U-251) was > 10 µM (inactive), the GI50 (NCI-H226) was > 10 µM (inactive) and the GI50 (SNB-19) was > 10 µM (inactive). The GI50 (Hs-578T) was > 10 µM (inactive), the GI50 (NCI-H460) was > 10 µM (inactive) and the GI50 (OVCAR-5) was > 10 µM (inactive). The GI50 (TK-10) was > 10 µM (inactive), the GI50 (MDA-MB-231) was > 10 µM (inactive) and the GI50 (786-0) was > 10 µM (inactive). The GI50 (CAKI-1) was > 10 µM (inactive), the GI50 (KM12) was > 10 µM (inactive) and the GI50 (OVCAR-3) was > 10 µM (inactive). For the same compound, the GI50 (MCF7) was > 10 µM (inactive).
`C/C(=N\NC(=S)N1CCCCCCCCCCCC1)c1ccccn1` was tested, and the GI50 (Malme-3M) was 0.281 µM (active), the GI50 (NCI-H23) was 0.379 µM (active) and the GI50 (OVCAR-8) was 0.147 µM (active). For the same compound, the GI50 (UACC-257) was 0.0689 µM (active), the GI50 (CCRF-CEM) was 0.0431 µM (active) and the GI50 (M14) was 0.214 µM (active). For the same compound, the GI50 (BT-549) was 0.0991 µM (active), the GI50 (PC-3) was 0.107 µM (active) and the GI50 (SW-620) was 0.0652 µM (active). For the same compound, the GI50 (SF-539) was 0.199 µM (active), the GI50 (HCT-15) was 0.216 µM and the GI50 (A498) was 0.372 µM (active). The GI50 (OVCAR-4) was 0.0491 µM (active), the GI50 (SF-295) was 0.324 µM (active) and the GI50 (HCT-116) was 0.447 µM (active). The GI50 (RXF 393) was 0.0769 µM (active), the GI50 (HL-60) was 0.0167 µM (active) and the GI50 (COLO 205) was 0.0522 µM (active). For the same compound, the GI50 (HOP-92) was 0.111 µM (active), the GI50 (NCI-H522) was 0.0855 µM (active) and the GI50 (MDA-N) was 0.126 µM (active). For the same compound, the GI50 (LOX IMVI) was 0.135 µM (active), the GI50 (SK-MEL-5) was 0.2 µM (active) and the GI50 (DU-145) was 0.533 µM (active). For the same compound, the GI50 (SF-268) was 0.225 µM (active), the GI50 (SR) was 0.0782 µM (active) and the GI50 (HOP-62) was 0.132 µM (active). For the same compound, the GI50 (MDA-MB-435) was 0.15 µM (active), the GI50 (ACHN) was 0.215 µM (active) and the GI50 (SN12C) was 0.238 µM (active). For the same compound, the GI50 (A549) was 0.356 µM (active), the GI50 (EKVX) was 0.0514 µM (active) and the GI50 (UO-31) was 0.349 µM (active). The GI50 (K562) was 0.0223 µM (active), the GI50 (T47D) was 0.233 µM (active) and the GI50 (NCI/ADR-RES) was 0.778 µM (active). For the same compound, the GI50 (HT-29) was 0.0356 µM (active), the GI50 (SK-MEL-28) was 0.33 µM (active) and the GI50 (HCC 2998) was 0.385 µM (active). The GI50 (MOLT-4) was 0.0318 µM (active), the GI50 (SNB-75) was 0.243 µM (active) and the GI50 (SK-MEL-2) was 0.299 µM (active). For the same compound, the GI50 (IGROV-1) was 0.212 µM (active), the GI50 (U-251) was 0.0673 µM (active) and the GI50 (NCI-H226) was 0.199 µM (active). For the same compound, the GI50 (SNB-19) was 0.659 µM (active), the GI50 (Hs-578T) was 0.24 µM (active) and the GI50 (NCI-H460) was 0.256 µM (active). The GI50 (OVCAR-5) was 0.971 µM (active), the GI50 (TK-10) was 0.166 µM (active) and the GI50 (MDA-MB-231) was 0.169 µM (active). For the same compound, the GI50 (786-0) was 0.173 µM (active), the GI50 (CAKI-1) was 0.246 µM (active) and the GI50 (KM12) was 0.102 µM (active). The GI50 (OVCAR-3) was 0.0346 µM (active) and the GI50 (MCF7) was 0.0865 µM (active).
With `CC(=O)Nc1cc2cc(N)ccc2oc1=O` the GI50 (Malme-3M) was > 100 µM (inactive), the GI50 (NCI-H23) was > 100 µM (inactive) and the GI50 (OVCAR-8) was > 100 µM (inactive). The GI50 (UACC-257) was > 100 µM (inactive), the GI50 (CCRF-CEM) was > 100 µM (inactive) and the GI50 (M14) was > 100 µM (inactive). The GI50 (BT-549) was > 100 µM (inactive), the GI50 (PC-3) was > 100 µM (inactive) and the GI50 (SW-620) was > 100 µM (inactive). The GI50 (SF-539) was > 100 µM (inactive), the GI50 (RPMI-8226) was > 100 µM (inactive) and the GI50 (HCT-15) was > 100 µM. The GI50 (A498) was > 100 µM (inactive), the GI50 (OVCAR-4) was > 100 µM (inactive) and the GI50 (SF-295) was > 100 µM (inactive). For the same compound, the GI50 (HCT-116) was > 100 µM (inactive), the GI50 (RXF 393) was 0.0411 µM (active) and the GI50 (HL-60) was > 100 µM (inactive). For the same compound, the GI50 (COLO 205) was > 100 µM (inactive), the GI50 (HOP-92) was > 100 µM (inactive) and the GI50 (NCI-H522) was > 100 µM (inactive). The GI50 (MDA-N) was > 100 µM (inactive), the GI50 (LOX IMVI) was > 100 µM (inactive) and the GI50 (SK-MEL-5) was > 100 µM (inactive). For the same compound, the GI50 (DU-145) was > 100 µM (inactive), the GI50 (SF-268) was > 100 µM (inactive) and the GI50 (SR) was > 100 µM (inactive). For the same compound, the GI50 (HOP-62) was > 100 µM (inactive), the GI50 (MDA-MB-435) was > 100 µM (inactive) and the GI50 (ACHN) was > 100 µM (inactive). The GI50 (SN12C) was > 100 µM (inactive), the GI50 (A549) was > 100 µM (inactive) and the GI50 (EKVX) was > 100 µM (inactive). For the same compound, the GI50 (UO-31) was > 100 µM (inactive), the GI50 (K562) was > 100 µM (inactive) and the GI50 (T47D) was > 100 µM (inactive). The GI50 (NCI/ADR-RES) was > 100 µM (inactive), the GI50 (HT-29) was > 100 µM (inactive) and the GI50 (SK-MEL-28) was > 100 µM (inactive). The GI50 (HCC 2998) was > 100 µM (inactive), the GI50 (MOLT-4) was > 100 µM (inactive) and the GI50 (SK-MEL-2) was > 100 µM (inactive). For the same compound, the GI50 (IGROV-1) was > 100 µM (inactive), the GI50 (U-251) was > 100 µM (inactive) and the GI50 (NCI-H226) was > 100 µM (inactive). For the same compound, the GI50 (SNB-19) was > 100 µM (inactive), the GI50 (Hs-578T) was > 100 µM (inactive) and the GI50 (NCI-H460) was > 100 µM (inactive). The GI50 (OVCAR-5) was > 100 µM (inactive), the GI50 (TK-10) was > 100 µM (inactive) and the GI50 (MDA-MB-231) was > 100 µM (inactive). For the same compound, the GI50 (786-0) was > 100 µM (inactive), the GI50 (CAKI-1) was > 100 µM (inactive) and the GI50 (KM12) was > 100 µM (inactive). For the same compound, the GI50 (OVCAR-3) was > 100 µM (inactive) and the GI50 (MCF7) was > 100 µM (inactive).
